The values below come from ChEMBL document CHEMBL2074500 (Drug Metab Dispos, 1999).

The target in data set [1] is T1, Solute carrier organic anion transporter family member 1A2 (Homo sapiens, UniProt P46721).
T1 sequence (P46721 whole entry): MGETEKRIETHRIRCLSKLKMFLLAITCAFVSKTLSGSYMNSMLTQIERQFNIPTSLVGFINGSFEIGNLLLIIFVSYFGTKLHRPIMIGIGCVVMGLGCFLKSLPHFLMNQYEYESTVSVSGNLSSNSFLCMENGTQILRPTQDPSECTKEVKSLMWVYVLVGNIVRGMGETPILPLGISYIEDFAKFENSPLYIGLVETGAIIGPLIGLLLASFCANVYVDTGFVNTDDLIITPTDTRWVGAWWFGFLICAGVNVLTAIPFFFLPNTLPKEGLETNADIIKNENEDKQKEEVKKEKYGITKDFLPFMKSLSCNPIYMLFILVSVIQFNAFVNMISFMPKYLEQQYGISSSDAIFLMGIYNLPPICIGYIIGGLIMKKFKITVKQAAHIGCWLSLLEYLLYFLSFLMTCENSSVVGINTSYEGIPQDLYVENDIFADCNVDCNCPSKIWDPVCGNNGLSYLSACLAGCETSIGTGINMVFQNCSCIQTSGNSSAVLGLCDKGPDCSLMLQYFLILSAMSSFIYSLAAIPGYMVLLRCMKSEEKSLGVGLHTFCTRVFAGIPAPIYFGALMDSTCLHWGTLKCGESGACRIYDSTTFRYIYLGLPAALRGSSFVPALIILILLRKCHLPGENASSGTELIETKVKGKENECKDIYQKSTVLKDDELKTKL
The experiment in a line: TP_TRANSPORTER: inhibition of Fexofenadine uptake (Fexofenadine: 2 uM, Saquinavir: 100 uM) in Xenopus laevis oocytes. More on the design: scale not given: the % may be the effect or the level left. Particulars: oocyte. The format is functional, cell-based.

The target of data set [2] is T1, Solute carrier organic anion transporter family member 1A2. Put plainly: TP_TRANSPORTER: inhibition of Fexofenadine uptake (Fexofenadine: 2 uM, Indinavir: 100 uM) in Xenopus laevis oocytes. Type of data set: functional, cell-based. Particulars: oocyte. Details: scale not given: the % may be the effect or the level left.
For data set [3] the target is unchanged. The experiment in a line: TP_TRANSPORTER: inhibition of Fexofenadine uptake (Fexofenadine: 2 uM, Nelfinavir: 100 uM) in Xenopus laevis oocytes. Type of data set: functional, cell-based. More on the design: scale not given: the % may be the effect or the level left. The note with it: oocyte.
Data set [4] has the same target. The experiment in a line: TP_TRANSPORTER: inhibition of Fexofenadine uptake (Fexofenadine: 2 uM, Verapamil: 100 uM) in Xenopus laevis oocytes. The format is functional, cell-based, Oocyte. Particulars: probe Fexofenadine.
The target is the same in data set [5]. The experiment in a line: TP_TRANSPORTER: inhibition of Fexofenadine uptake (Fexofenadine: 2 uM, Erythromycin: 100 uM) in Xenopus laevis oocytes. The format is functional, cell-based. Details: scale not given: the % may be the effect or the level left. Particulars: oocyte.
The target of data set [6] is T2, ATP-dependent translocase ABCB1 (Mus musculus, UniProt P21447). Put plainly: TP_TRANSPORTER: increase in spleen concentration in mdr1a(-/-) mouse. The format is functional, organism-based. The note with it: in vivo.
T2 sequence (P21447 whole entry): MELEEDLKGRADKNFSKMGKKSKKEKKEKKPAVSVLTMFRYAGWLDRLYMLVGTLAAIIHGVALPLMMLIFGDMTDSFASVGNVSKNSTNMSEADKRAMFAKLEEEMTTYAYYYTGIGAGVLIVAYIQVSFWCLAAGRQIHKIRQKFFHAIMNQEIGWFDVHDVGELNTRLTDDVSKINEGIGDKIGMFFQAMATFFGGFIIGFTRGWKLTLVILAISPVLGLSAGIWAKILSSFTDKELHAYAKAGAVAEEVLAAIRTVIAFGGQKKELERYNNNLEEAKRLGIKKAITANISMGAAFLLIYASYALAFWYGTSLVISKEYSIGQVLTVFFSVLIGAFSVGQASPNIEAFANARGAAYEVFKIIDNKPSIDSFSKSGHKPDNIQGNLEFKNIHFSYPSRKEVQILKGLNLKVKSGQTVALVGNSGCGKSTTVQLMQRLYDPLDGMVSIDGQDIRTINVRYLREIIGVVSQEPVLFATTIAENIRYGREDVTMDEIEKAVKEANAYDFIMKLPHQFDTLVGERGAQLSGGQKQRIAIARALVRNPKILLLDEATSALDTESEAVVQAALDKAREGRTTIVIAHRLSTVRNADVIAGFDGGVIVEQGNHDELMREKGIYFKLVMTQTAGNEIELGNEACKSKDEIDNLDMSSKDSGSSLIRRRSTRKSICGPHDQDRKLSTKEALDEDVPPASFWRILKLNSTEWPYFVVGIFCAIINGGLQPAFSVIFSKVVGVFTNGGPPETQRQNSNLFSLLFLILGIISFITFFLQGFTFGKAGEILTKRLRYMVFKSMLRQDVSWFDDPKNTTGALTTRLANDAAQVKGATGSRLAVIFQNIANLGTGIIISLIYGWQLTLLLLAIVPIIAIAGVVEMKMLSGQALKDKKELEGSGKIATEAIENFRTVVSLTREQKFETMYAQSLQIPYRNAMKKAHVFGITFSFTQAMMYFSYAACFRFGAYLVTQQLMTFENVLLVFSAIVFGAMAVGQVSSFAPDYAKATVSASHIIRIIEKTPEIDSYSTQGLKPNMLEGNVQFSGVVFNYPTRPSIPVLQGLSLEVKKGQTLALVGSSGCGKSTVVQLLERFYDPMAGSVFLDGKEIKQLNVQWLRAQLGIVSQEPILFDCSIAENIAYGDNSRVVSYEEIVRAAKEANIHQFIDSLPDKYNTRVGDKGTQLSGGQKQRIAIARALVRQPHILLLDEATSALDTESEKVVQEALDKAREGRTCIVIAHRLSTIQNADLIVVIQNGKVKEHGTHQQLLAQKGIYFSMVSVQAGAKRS
For data set [7], the target named is T2, ATP-dependent translocase ABCB1. The experiment in a line: TP_TRANSPORTER: increase in small intestine concentration in mdr1a(-/-) mouse. The note with it: in vivo. Type of data set: functional, organism-based.
For data set [8] the target is unchanged. The experiment in a line: TP_TRANSPORTER: increase in plasma concentration in mdr1a(-/-) mouse. Type of data set: functional, organism-based. Particulars: in vivo.
For data set [9] the target is unchanged. The experiment in a line: TP_TRANSPORTER: increase in liver concentration in mdr1a(-/-) mouse. The format is functional, organism-based. The note with it: in vivo.
For data set [10] the target is unchanged. The experiment in a line: TP_TRANSPORTER: increase in kidney concentration in mdr1a(-/-) mouse. The format is functional, organism-based. Particulars: in vivo.
Data set [11] has the same target. The experiment in a line: TP_TRANSPORTER: increase in heart concentration in mdr1a(-/-) mouse. Type of data set: functional, organism-based. Particulars: in vivo.
The target in data set [12] is T1, Solute carrier organic anion transporter family member 1A2. Put plainly: TP_TRANSPORTER: inhibition of Fexofenadine uptake (Fexofenadine: 2 uM, Ketoconazole: 100 uM) in Xenopus laevis oocytes. Details: scale not given: the % may be the effect or the level left. The note with it: oocyte. Type of data set: functional, cell-based.
The target is the same in data set [13]. Put plainly: TP_TRANSPORTER: inhibition of Fexofenadine uptake (Fexofenadine: 2 uM, Lovastatin: 100 uM) in Xenopus laevis oocytes. Type of data set: functional, cell-based, Oocyte. The note with it: probe Fexofenadine.
Data set [14] shares this target. Put plainly: TP_TRANSPORTER: inhibition of Fexofenadine uptake (Fexofenadine: 2 uM, Quinidine: 100 uM) in Xenopus laevis oocytes. The format is functional, cell-based, Oocyte. The note with it: probe Fexofenadine, read-out: Activity.
For data set [15] the target is unchanged. The experiment in a line: TP_TRANSPORTER: inhibition of Fexofenadine uptake (Fexofenadine: 2 uM, PSC-833: 100 uM) in Xenopus laevis oocytes. The format is functional, cell-based, Oocyte. The note with it: probe Fexofenadine.
Substrate in data set [16]: CC(C)(C(=O)O)c1ccc(C(O)CCCN2CCC(C(O)(c3ccccc3)c3ccccc3)CC2)cc1
The experiment in a line: TP_TRANSPORTER: uptake in Oatp2-expressing HeLa cells. Type of data set: functional, cell-based.

In [1], `CC(C)(C)NC(=O)[C@@H]1C[C@@H]2CCCC[C@@H]2CN1C[C@@H](O)[C@H](Cc1ccccc1)NC(=O)[C@H](CC(N)=O)NC(=O)c1ccc2ccccc2n1` had an Activity of 105%.

In data set [2], `CC(C)(C)NC(=O)[C@@H]1CN(Cc2cccnc2)CCN1C[C@@H](O)C[C@@H](Cc1ccccc1)C(=O)N[C@H]1c2ccccc2C[C@H]1O.O` yielded an Activity of 70%.

Molecule `Cc1c(O)cccc1C(=O)N[C@@H](CSc1ccccc1)[C@H](O)CN1C[C@H]2CCCC[C@H]2C[C@H]1C(=O)NC(C)(C)C` came in with an Activity in data set [3] of 81%.

In the case of `COc1ccc(CCN(C)CCCC(C#N)(c2ccc(OC)c(OC)c2)C(C)C)cc1OC` (stereo unspecified), in [4], the inhibition at 100 µM was found to be 100%.

Regarding `CC[C@H]1OC(=O)[C@H](C)[C@@H](O[C@H]2C[C@@](C)(OC)[C@@H](O)[C@H](C)O2)[C@H](C)[C@@H](O[C@@H]2O[C@H](C)C[C@H](N(C)C)[C@H]2O)[C@](C)(O)C[C@@H](C)C(=O)[C@H](C)[C@@H](O)[C@]1(C)O` [ERYTHROMYCIN], the Activity in data set [5] is 66%.

Consider `CC(C)(C(=O)O)c1ccc(C(O)CCCN2CCC(C(O)(c3ccccc3)c3ccccc3)CC2)cc1` (stereo unspecified) [FEXOFENADINE], for which the Activity result in data set [6], in data set [7], in [8], in [9], in data set [10] and in data set [11] was “substrate [+]” each time.

`CC(=O)N1CCN(c2ccc(OCC3COC(Cn4ccnc4)(c4ccc(Cl)cc4Cl)O3)cc2)CC1` (stereo unspecified) [KETOCONAZOLE] gave an Activity in data set [12] of 107%.

In the case of `CC[C@H](C)C(=O)O[C@H]1C[C@@H](C)C=C2C=C[C@H](C)[C@H](CC[C@@H]3C[C@@H](O)CC(=O)O3)[C@H]21` [LOVASTATIN], in [13], the inhibition at 100 µM is 95%.

Turning to `C=C[C@H]1C[N@@]2CC[C@H]1C[C@@H]2[C@@H](O)c1ccnc2ccc(OC)cc12` [QUINIDINE], the inhibition at 100 µM in data set [14] stood at 91%.

`C/C=C/C[C@@H](C)C(=O)[C@H]1C(=O)N[C@@H](C(C)C)C(=O)N(C)CC(=O)N(C)[C@@H](CC(C)C)C(=O)N[C@@H](C(C)C)C(=O)N(C)[C@@H](CC(C)C)C(=O)N[C@@H](C)C(=O)N[C@H](C)C(=O)N(C)[C@@H](CC(C)C)C(=O)N(C)[C@@H](CC(C)C)C(=O)N(C)[C@@H](C(C)C)C(=O)N1C` [VALSPODAR] gave an inhibition at 100 µM in data set [15] of 85%.

B1: Solute carrier organic anion transporter family member 1A4 (Rattus norvegicus) (protein)
chain: MGKSEKRVATHGVRCFAKIKMFLLALTCAYVSKSLSGTYMNSMLTQIERQFGIPTSIVGLINGSFEIGNLLLIIFVSYFGTKLHRPIMIGVGCAVMGLGCFLISLPHFLMGQYEYETILPTSNVSSNSFFCVENRSQTLNPTQDPSECVKEMKSLMWIYVLVGNIIRGIGETPIMPLGISYIEDFAKSENSPLYIGILETGMTIGPLIGLLLASSCANIYVDIESVNTDDLTITPTDTRWVGAWWIGFLVCAGVNILTSFPFFFFPKTLPKEGLQENVDGTENAKEKKHRKKAKEEKRGITKDFFVFMKSLSCNPIYMLFILISVLQFNAFINSFTFMPKYLEQQYGKSTAEVVFLMGLYMLPPICLGYLIGGLIMKKFKVTVKKAAHLAFWLCLSEYLLSFLSYVMTCDNFPVAGLTTSYEGVQHQLYVENKVLADCNTRCNCSTNTWDPVCGDNGLAYMSACLAGCEKSVGTGTNMVFQNCSCIQSSGNSSAVLGLCNKGPDCANKLQYFLIIAIFGCFIYSLAGIPGYMVLLRCIKSEEKSLGVGLHAFCIRILAGIPAPIYFGALIDRTCLHWGTLKCGEPGACRMYDINSFRRLYLGLPAALRGASFVPAFFILRLTRTFQFPGDIESSKTDHAEMKLTLKESECTEVLRSKVTED
Take B1: the Km in data set [16] worked out at 6 µM.

What is called Km is the concentration of substrate that gives half-maximal velocity.
